Results reported in patent publication US20150064794A1, “BIORELEVANT COMPOSITIONS” (PHARES PHARMACEUTICAL RESEARCH N.V., priority 2012, published 2015).
Converted amounts (≈) assume the structure as drawn.

Experiments:
[1] = medium FaSSIF-Original; Söderlind; cited from earlier work
[2] = physchem; conditions: fassif
[3] = Solubility in canine FaSSIF (FaSSIF-canine)

Row | SMILES | solubility in prior art FaSSIF-Original [1] [µg/mL] | solubility [2] [µg/mL] | solubility [3] [µg/mL]
1 | OCCN(CCO)c1nc(N2CCCCC2)c2nc(N(CCO)CCO)nc(N3CCCCC3)c2n1 [dipyridamole] | 19 (≈ 37.7 µM) | 75 (≈ 149 µM) | 
2 | CC(=O)N1CCN(c2ccc(OCC3COC(Cn4ccnc4)(c4ccc(Cl)cc4Cl)O3)cc2)CC1 (stereo not shown) [ketoconazole] | 26 (≈ 48.9 µM) |  | 84.2 (≈ 158 µM)
